What all share (assay type): cell-based
One test concerns aggrecan core protein. As to the kind of experiment: Aggrecan core protein by Western blot, bovine disc organ culture. Particulars: degenerated bovine discs, 2 weeks post Link N 1-8 treatment. The source says:
(§1) The largest first 3-4 caudal discs were isolated from the tails of 24- to 30-month-old steers, as described previously (21,22). Briefly, the tails were dissected free of skin, muscles and ligaments, and pedicles for each segment were removed. The bone and the adjacent calcified part of the cartilaginous endplate were removed, so that the surface of the disc was soft and flexible without detectable calcified tissue. After the discs were rinsed in PBS supplemented with 1,000 U/mL penicillin, 1,000 μg/mL streptomycin and 0.25 μg/mL fungizone (GIBCO, Burlington, Canada), they were preconditioned for 3 days in sterile 80 mL specimen containers (STARPLEX Scientific, Etobicoke, Canada) containing 50 mL culture medium. (DMEM with 2 mM Glutamax and 25 mM Hepes, supplemented with 5% FBS, 100 U/mL penicillin, 100 μg/mL streptomycin, 50 μg/mL L-ascorbate). Degeneration was induced by a single injection of 100 μg trypsin (Sigma-Aldrich) dissolved in 75 μL PBS into the center of the disc using a 28 G½ needle (21) The needle was placed on top of the disc to measure the distance needed to reach the center and was then inserted to the same depth. […] The number of MSCs used was based on a study by Liebscher et al (23), which measured the cell density of healthy human discs. […]
(§2) The remaining nucleus pulposus (NP) tissue was collected and the wet weight was recorded (21). […]

The next test relates to type II collagen. Nature of the test: Type II collagen by Western blot, bovine disc organ culture. Particulars: degenerated bovine discs, 2 weeks post Link N 1-8 treatment.
Excerpt: as §1, §2

For test [1], the system named is human nucleus pulposus (NP) cells. Nature of the test: Proteoglycan synthesis by 35SO4 incorporation, cells in alginate beads. Particulars: 48 h. As to the method:
(§3) Human thoracolumbar spines were retrieved through the Transplant Quebec organ donation program. Discs were obtained from 7 donors, 1 male and 6 female, with a mean age of 29.6 years and an age range of 16 to 47 years (Table 1). Donors having had recent chemotherapy, radiation therapies to the spine, or significant long-standing paralysis were excluded from the study. Spine retrieval was performed within 8 h of death. Discs with calcification and loss of disc height were not included in the study. All procedures were approved by the institutional review board of the Montreal General Hospital.
(§4) Human and bovine IVDs were separated from the adjoining vertebral body and divided into NP and AF for bovine IVDs and NP and inner annulus fibrosus (iAF) for human IVDs. Tissue from the human outer annulus fibrosus (oAF) was not used for cell isolation in this study. Cells were enzymatically isolated from each region as previously described (63). Briefly, NP and AF tissues were dissected into approximately 2-mm thick pieces, washed twice in PBS containing 50 μg/mL gentamicin, […] and 0.25 μg/mL fungizone, then digested with 0.2% pronase for 1 h, followed by collagenase type IA at 0.01% for NP and 0.04% for AF tissue for 4 h in serum free DMEM.
(§5) To compare the metabolic response to the various Link N peptides, freshly isolated human and bovine cells from NP and AF regions were embedded in 1.2% alginate beads, as previously described (65). Cells in alginate beads were cultured at 37° C., 5% CO2 in DMEM, containing 4.5 g/L glucose and supplemented with 10% FCS, 25 mmol/L HEPES, 50 μg/mL gentamicin sulphate, 0.25 μg/mL fungizone, 50 μg/mL L-ascorbate, and 2 mmol/L GlutaMAX. The beads were stabilized for 7 days and cell viability was assessed by Live/Dead® assay prior to further treatment. 5 beads per well were then cultured in 48 well plates in the presence of equimolar concentrations of either Link N (1 μg/mL), R-Link N (1 μg/mL), S-Link N (1 μg/mL), Link N 1-8 (0.5 μg/mL) or Link N 9-16 (0.5 μg/mL) in 0.5 mL DMEM. 25 μCi/mL ^35SO4 was added to the medium to allow assessment of proteoglycan synthesis (66). In addition, beads were exposed for 48 h to IL-1β (10 ng/mL) alone, or to a combination of peptides and IL-1β (51). At the end of the culture period, medium was collected and dialyzed exhaustively against miliQ water at […] (Spectra/Por® 3), followed by cold chase with 1M MgSO4 for 2 h to remove any remaining unincorporated ^35SO4. The ^35SO4 incorporation was measured using a beta scintillation counter (Beckman Coulter LS6500, Beckman Coulter, Mississauga, Canada).

The subject of test [2] is human inner annulus fibrosus (iAF) cells. The test is described as above. Particulars: human AF (iAF) cells, 48 h. As to the method: as §3, §4, §5
The test system of test [3] is bovine annulus fibrosus (AF) cells. Described as above. Particulars: 48 h. On the procedure: as §4, §5
Test [4] concerns bovine nucleus pulposus (NP) cells. The test is described as above. The following applies: 48 h. As to the method:
as §4, §5

Test [5] deals with bovine discs with trypsin-induced degeneration. As to the kind of experiment: Proteoglycan (GAG, DMMB) concentration in bovine disc organ culture with trypsin-induced degeneration. The following applies: degenerated bovine discs, 2 weeks post Link N 1-8 treatment.
Excerpt: as §1, with “L-ascorbate).” for “L-ascorbate). Degeneration was induced by a single injection of 100 μg trypsin (Sigma-Aldrich) dissolved in 75 μL PBS into the center of the disc using a 28 G½ needle (21) The needle was placed on top of the disc to measure the distance needed to reach the center and was then inserted to the same depth.”
as §2
Sulfated glycosaminoglycans (GAGs) were quantified in tissue extracts by a modified dimethyl methylene blue (DMMB) dye-binding assay (25,26). […]

Setting [6] is: 16-mer peptides 1 μg/mL, 8-mer peptides 0.5 μg/mL, vs medium alone.
The mark [7] stands for this setting: IL-1β 10 ng/mL, vs IL-1-containing medium.

Turning to “DHLSDNYT [Link N 1-8, Link-N first 8 peptide residues]”, the aggrecan expression result in the test with aggrecan core protein is listed as “statistically significant increase”. In the test on type II collagen, the “type II collagen expression” value is listed as “statistically significant increase”. In addition, the “proteoglycan synthesis (35SO4 incorporation)” value in test [1] (setting [6]) is “significant increase”; in test [2] (setting [6]), “significant increase”; in test [3] (setting [6]) it was “statistically significant increase”; in test [4] (setting [6]), “statistically significant increase”. Besides, the “proteoglycan synthesis (35SO4 incorporation) in the presence of IL-1β” value in test [1] (setting [7]) was “significantly increased response”; in test [2] (setting [7]), “significantly increased response”; in test [3] (setting [7]), “significantly induced proteoglycan production to the same extent as native Link N”; in test [4] (setting [7]), “significantly induced proteoglycan production to the same extent as native Link N”. Also, the “proteoglycan synthesis (proteoglycan concentration in the discs)” value in test [5] was “statistically significant increase”.

These data come from US10202420B2, “Methods and compositions for treatment of cartilage and disc tissue pathologies” (THE ROYAL INSTITUTION FOR ADVANCEMENT OF LEARNING/MCGILL …, priority 2013, dated 2019).
